Experimental findings from ChEMBL document CHEMBL1201862, “PubChem BioAssay data set” (2004) are described below.

Some test systems named below: ACHN; A549; SK-OV-3; OVCAR-5; HOP-62; MDA-MB-435; UACC-257; KM12; Malme-3M; NCI-H460; NCI-H23; TK-10; UACC-62; SR; RXF 393; HCT-15; A498; BT-549; LOX IMVI; SNB-75.
Common to all, as to test: DTP human tumour cell line panel, 48 h

The structures appear in SMILES notation.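 Interpolation was linear, between the two tested concentrations surrounding the appropriate level; five concentrations were tested over 48 hours in 96-well plates. GI50 = concentration required for 50% inhibition of growth.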 Active and inactive are the calls of the source. No stated cut-off is given here; in the data, active = GI50 up to about 1.1 µM and inactive = higher.

The GI50 is the concentration that inhibits growth by half.

Turning to `Cc1ccc(C(=O)Cc2nc3ncccc3[nH]c2=O)cc1`, the GI50 with ACHN was 25.7 µM (inactive); in the assay on A549, 12.8 µM (inactive); with SK-OV-3, 23 µM (inactive); with OVCAR-5 it was 81.5 µM (inactive); with HOP-62, 26 µM (inactive); in the assay with MDA-MB-435 it was 18.7 µM (inactive). The GI50 with UACC-257 is 40.6 µM (inactive); with KM12, 43.4 µM (inactive); in the assay with Malme-3M it was 23.2 µM (inactive); with NCI-H460, 45.4 µM (inactive); with NCI-H23, 9.29 µM (inactive); with TK-10, 29.9 µM (inactive). For the same compound, the GI50 was 49.8 µM (inactive) with UACC-62; 48.5 µM (inactive) with SR; 44.2 µM (inactive) in the assay on RXF 393; 41.2 µM in the assay on HCT-15; > 100 µM (inactive) with A498; 43.7 µM (inactive) with BT-549.
Regarding `Cc1c(C)c2c(c(N)c1C#N)C(=O)N(Nc1ccccc1)C2=O`, the GI50 was 60.1 µM (inactive) in the assay on ACHN; 3.51 µM (inactive) in the assay on LOX IMVI; 74.3 µM (inactive) with A549; 30.6 µM (inactive) in the assay on SNB-75; > 100 µM (inactive) with OVCAR-5; 72.8 µM (inactive) in the assay with MDA-MB-435. Also, the GI50 is 81.8 µM (inactive) with UACC-257; 36.1 µM (inactive) in the assay on KM12; 51.5 µM (inactive) in the assay on Malme-3M; 60.8 µM (inactive) with NCI-H460; 28.1 µM (inactive) with TK-10; 51.4 µM (inactive) with UACC-62. Also, the GI50 with SR was 66.1 µM (inactive); with RXF 393, 20 µM (inactive); with HCT-15, over 100 µM; in the assay with BT-549, > 100 µM (inactive).
Consider `COc1cccc(C23CCN(C)C(CC(O)C2)C3)c1OC` (stereo not drawn), for which the GI50 with ACHN, in the assay on LOX IMVI, in the assay with A549, in the assay with SK-OV-3, with OVCAR-5 and in the assay with HOP-62 was > 100 µM (inactive) in each case. Also, the GI50 in the assay with MDA-MB-435, with UACC-257, with KM12, with Malme-3M, in the assay with NCI-H23 and with TK-10 was > 100 µM (inactive) each time. Further, the GI50 with UACC-62 is > 100 µM (inactive); with SR, > 100 µM (inactive); in the assay with HCT-15, over 100 µM; in the assay with A498 it was > 100 µM (inactive); in the assay with BT-549 it was > 100 µM (inactive).
Regarding `C=C(C)C1CC/C(C)=C/CC[C@]2(C)O[C@H]2CC/C(COC(C)=O)=C\[C@@H]1O` (stereo partly drawn), the GI50 is > 50 µM (inactive) in the assay on ACHN; > 50 µM (inactive) in the assay with A549; 31.1 µM (inactive) in the assay with SK-OV-3; > 50 µM (inactive) in the assay on OVCAR-5; 28.8 µM (inactive) in the assay on HOP-62; 22.7 µM (inactive) in the assay on MDA-MB-435. The GI50 in the assay on UACC-257 is > 50 µM (inactive); in the assay with KM12 it was > 50 µM (inactive); in the assay with NCI-H460, 25.1 µM (inactive); with NCI-H23 it was > 50 µM (inactive); with TK-10, > 50 µM (inactive); in the assay on UACC-62, > 50 µM (inactive). Further, the GI50 was 34.6 µM (inactive) in the assay on SR; > 50 µM (inactive) with RXF 393; over 50 µM in the assay with HCT-15; > 50 µM (inactive) in the assay on A498; > 50 µM (inactive) in the assay with BT-549.
As for `COc1ccc(C2SC(C)C(=O)N2c2nc(-c3nc(-c4ccc(Cl)cc4)cs3)cs2)cc1` (stereo not drawn), the GI50 in the assay with ACHN, in the assay with LOX IMVI, in the assay on A549, in the assay with SK-OV-3, in the assay on SNB-75 and in the assay on OVCAR-5 was > 100 µM (inactive) each time. Besides, the GI50 in the assay on HOP-62, in the assay on MDA-MB-435, in the assay with UACC-257, in the assay on KM12, in the assay on Malme-3M and in the assay on NCI-H460 was > 100 µM (inactive) in each case. The GI50 was > 100 µM (inactive) with NCI-H23; > 100 µM (inactive) with TK-10; > 100 µM (inactive) in the assay with UACC-62; > 100 µM (inactive) in the assay on SR; > 100 µM (inactive) with RXF 393; over 100 µM with HCT-15. Moreover, the GI50 in the assay on BT-549 is > 100 µM (inactive).
With `S=c1c2cn[nH]c2nc2scc(-c3ccc(Cl)cc3)n12`, the GI50 was 12.9 µM (inactive) in the assay with ACHN; 11.3 µM (inactive) with LOX IMVI; 13 µM (inactive) in the assay on A549; 18.1 µM (inactive) with SK-OV-3; 13.9 µM (inactive) in the assay on SNB-75; 14.3 µM (inactive) in the assay on OVCAR-5. Moreover, the GI50 with HOP-62 is 16.9 µM (inactive); in the assay on MDA-MB-435 it was 3.78 µM (inactive); in the assay on UACC-257, 54.6 µM (inactive); in the assay with KM12, 11.1 µM (inactive); in the assay on Malme-3M, 22.2 µM (inactive); in the assay with NCI-H460, 20.6 µM (inactive). Also, the GI50 is 13.8 µM (inactive) in the assay with NCI-H23; 10.6 µM (inactive) in the assay with TK-10; 16.3 µM (inactive) with UACC-62; 12.1 µM (inactive) with SR; 4.04 µM (inactive) in the assay on RXF 393; 10.7 µM in the assay on HCT-15. Moreover, the GI50 in the assay with BT-549 was 10.5 µM (inactive).
Turning to `CC1CC[C@@]2(OC1)OC1CC3C4CCC5C[C@@H](OC6OC(CO)C(OC7OC(CO)C(O)C(OC8OC(CO)C(O)C(OC9OC(CO)C(O)C(O)C9O)C8O)C7OC7OC(CO)C(O)C(O)C7O)C(O)C6O)[C@H](O)C[C@]5(C)C4CC[C@]3(C)C1[C@@H]2C` (stereo partly drawn), the GI50 in the assay on ACHN, in the assay with LOX IMVI, in the assay on A549, in the assay with SK-OV-3, with SNB-75 and in the assay with OVCAR-5 was > 80.5 µM (inactive) in each case. The GI50 with HOP-62, in the assay with MDA-MB-435, with UACC-257, with KM12, in the assay with Malme-3M and in the assay with NCI-H460 was > 80.5 µM (inactive) throughout. In addition, the GI50 in the assay with NCI-H23 was > 80.5 µM (inactive); with TK-10, > 80.5 µM (inactive); in the assay on UACC-62, > 80.5 µM (inactive); in the assay with RXF 393 it was > 80.5 µM (inactive); in the assay with HCT-15, over 80.5 µM; in the assay with A498, > 80.5 µM (inactive). Further, in the assay with BT-549, the GI50 was > 80.5 µM (inactive).
As for `CC1(C)COC(c2ccccc2-c2ccccc2)=N1`, the GI50 in the assay with ACHN is > 100 µM (inactive); in the assay on A549, 59.2 µM (inactive); with SK-OV-3 it was > 100 µM (inactive); with OVCAR-5, > 100 µM (inactive); with HOP-62, > 100 µM (inactive); with MDA-MB-435, > 100 µM (inactive). The GI50 was 66.1 µM (inactive) in the assay on UACC-257; > 100 µM (inactive) in the assay on KM12; > 100 µM (inactive) with Malme-3M; > 100 µM (inactive) in the assay with NCI-H460; 88.5 µM (inactive) in the assay on NCI-H23; 54.6 µM (inactive) with UACC-62. In addition, the GI50 with SR is > 100 µM (inactive); in the assay on RXF 393, 70.5 µM (inactive); in the assay on HCT-15, over 100 µM; in the assay with A498, > 100 µM (inactive); with BT-549 it was > 100 µM (inactive).
Turning to `Cc1cccc(/C=N/NC(=S)NC(C)(C)C)n1`, the GI50 in the assay on ACHN was 35.6 µM (inactive); in the assay on LOX IMVI, 66.5 µM (inactive); in the assay with A549, > 100 µM (inactive); in the assay on SK-OV-3 it was > 100 µM (inactive); in the assay on SNB-75, > 100 µM (inactive); with OVCAR-5, 95.1 µM (inactive). The GI50 with HOP-62 is 98.9 µM (inactive); in the assay on MDA-MB-435 it was > 100 µM (inactive); in the assay on UACC-257, > 100 µM (inactive); in the assay on KM12, > 100 µM (inactive); in the assay on Malme-3M, > 100 µM (inactive); in the assay with NCI-H460, 85.1 µM (inactive). For the same compound, the GI50 in the assay on NCI-H23 was > 100 µM (inactive); with TK-10 it was 75.2 µM (inactive); in the assay on UACC-62, 66.4 µM (inactive); in the assay on SR, 23.7 µM (inactive); in the assay on HCT-15, 24.8 µM; in the assay with A498, > 100 µM (inactive). Further, the GI50 with BT-549 is > 100 µM (inactive).
With `N#Cc1cc(-c2nc3c(F)cccc3s2)ccc1N`, the GI50 with ACHN, with LOX IMVI, with A549, in the assay with SK-OV-3, in the assay with SNB-75 and in the assay on OVCAR-5 was > 100 µM (inactive) each time. In addition, the GI50 is > 100 µM (inactive) with HOP-62; 45.5 µM (inactive) in the assay with MDA-MB-435; > 100 µM (inactive) with UACC-257; 65.3 µM (inactive) in the assay on KM12; 88.9 µM (inactive) in the assay on Malme-3M; 20.5 µM (inactive) in the assay on NCI-H460. Also, the GI50 was > 100 µM (inactive) in the assay on NCI-H23; 4.26 µM (inactive) with TK-10; > 100 µM (inactive) in the assay with UACC-62; > 100 µM (inactive) with RXF 393; over 100 µM in the assay on HCT-15; > 100 µM (inactive) in the assay on A498. For the same compound, the GI50 with BT-549 was > 100 µM (inactive).
Regarding `CCOC(CN(C)C(=O)OCC(Cl)(Cl)Cl)OCC`, the GI50 was 99.1 µM (inactive) with ACHN; 57.9 µM (inactive) in the assay with LOX IMVI; > 100 µM (inactive) in the assay with A549; > 100 µM (inactive) with SK-OV-3; 83.4 µM (inactive) with SNB-75; > 100 µM (inactive) with OVCAR-5. Also, the GI50 is > 100 µM (inactive) with HOP-62; > 100 µM (inactive) in the assay with MDA-MB-435; 33.4 µM (inactive) with UACC-257; > 100 µM (inactive) in the assay on KM12; 61.5 µM (inactive) in the assay on NCI-H460; 59.7 µM (inactive) with NCI-H23. Further, the GI50 is > 100 µM (inactive) with TK-10; > 100 µM (inactive) with UACC-62; 34.2 µM (inactive) in the assay with SR; 30.7 µM (inactive) with RXF 393; 77.8 µM with HCT-15; 82.8 µM (inactive) in the assay on BT-549.
